Reference: US20260070945A1, “MACROCYCLIC IMMUNOMODULATORS” (Bristol-Myers Squibb Company, priority 2022, published 2026)
*1 amine or outer side, *2 acyl side, *3 side chain or, on linkers, in order; H or OH if unused. Where a SMILES comes first, the peptide text is derived from it. Bridges are numbered along the chain shown (N, C = ends). [ ]: non-standard residue; d: D form. The star is where a group is joined. ξ: configuration not given here. Phe(4-COOH) = N[C@@H](Cc1ccc(C(=O)O)cc1)C(=O)O; Bip = N[C@@H](Cc1ccc(-c2ccccc2)cc1)C(=O)O; Morpholine(3S-CO) = O=C(O)[C@@H]1COCCN1; Phe(3-Me) = Cc1cccc(C[C@H](N)C(=O)O)c1; Pip(4-aza) = O=C(O)[C@@H]1CNCCN1; 4Pal = N[C@@H](Cc1ccncc1)C(=O)O; X1 = O=C(CN1CCN([*:1])CC1)[*:2]; Cha = N[C@@H](CC1CCCCC1)C(=O)O; Cit = NC(=O)NCCC[C@H](N)C(=O)O; Thr(3ξ) = CC(O)[C@H](N)C(=O)O; 3Abz = Nc1cccc(C(=O)O)c1; 4Abz = Nc1ccc(C(=O)O)cc1; Carboxymethyl = O=C(O)C*; NMeA = CN[C@@H](C)C(=O)O; Orn = NCCC[C@H](N)C(=O)O; Aun = NCCCCCCCCCCC(=O)O; Dab = NCC[C@H](N)C(=O)O; Dap = NC[C@H](N)C(=O)O; AEEA = NCCOCCOCC(=O)O

Target: T1, PD-1/PD-L1 interaction (PE-labeled human PD-L1-Ig binding to Jurkat cell line over-expressing human PD-1) (Homo sapiens, UniProt Q15116)
T1 construct: expressed in transfected cells; host or cells: Jurkat
T1 sequence (Q15116 25-288): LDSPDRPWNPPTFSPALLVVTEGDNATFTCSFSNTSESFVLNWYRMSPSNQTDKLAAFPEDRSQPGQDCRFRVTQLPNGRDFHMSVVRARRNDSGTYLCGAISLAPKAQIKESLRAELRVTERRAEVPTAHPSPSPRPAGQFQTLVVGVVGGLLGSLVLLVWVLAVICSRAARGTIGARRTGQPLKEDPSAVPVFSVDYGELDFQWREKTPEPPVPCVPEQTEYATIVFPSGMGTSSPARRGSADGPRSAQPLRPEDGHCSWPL
Assay: Jurkat-PD-1 Cell Binding High-Content Screening Assay (CBA)
Settings: Jurkat-hPD-1 cells, PE-labeled PD-L1-Ig 20 nM final; read-out: Jurkat HPD1 PDL1 IC50
In short: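 High-content imaging read-out of PE-PD-L1-Ig binding (20 nM final, 1 h) to Jurkat-hPD-1 cells, after 2 h compound exposure at 37 °C in DMEM with 10% FCS. Nuclei counterstained with Hoechst 33342 after paraformaldehyde fixation.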

**Q.** How did the IC50 turn out when `CC(C)C[C@@H]1NC(=O)[C@H](Cc2c[nH]c3ccccc23)NC(=O)[C@H](CC(=O)O)NC(=O)[C@H](Cc2ccncc2)NC(=O)[C@H](Cc2ccc(OCC(=O)O)cc2)NC(=O)CSC[C@@H](C(=O)Nc2ccc(C(=O)NCCCCCCCCCCC(=O)O)cc2)NC(=O)[C@H](CCCN)NC(=O)[C@H](C(C)C)NC(=O)[C@H](CC2CCCCC2)NC(=O)[C@H](CCN)NC(=O)[C@@H](CC(C)C)NC(=O)[C@H](C)N(C)C(=O)[C@H](C(C)C)NC(=O)[C@H](Cc2ccc(-c3ccccc3)cc2)NC1=O` [Example 1213] ({CH2CO}-Y(Carboxymethyl)[4Pal]DWL[Bip]V[NMeA][dL][Dab][Cha]V[Orn]C[4Abz][Aun]-OH; thioether N-14) was run?
**A.** Its IC50 is 276 nM.

**Q.** Which IC50 does the source give for `CC(C)C[C@@H]1NC(=O)[C@H](Cc2c[nH]c3ccccc23)NC(=O)[C@H](CC(=O)O)NC(=O)[C@H](Cc2ccncc2)NC(=O)[C@H](Cc2ccc(OCC(=O)O)cc2)NC(=O)CSC[C@@H](C(=O)Nc2ccc(C(=O)NCCCCCCCCCCC(=O)O)cc2)NC(=O)[C@H](CCCNC(=N)N)NC(=O)[C@H](C(C)C)NC(=O)[C@H](CC2CCCCC2)NC(=O)[C@H](CCN)NC(=O)[C@@H](CC(C)C)NC(=O)[C@H](C)N(C)C(=O)[C@H](C(C)C)NC(=O)[C@H](Cc2ccc(-c3ccccc3)cc2)NC1=O` [Example 1214] ({CH2CO}-Y(Carboxymethyl)[4Pal]DWL[Bip]V[NMeA][dL][Dab][Cha]VRC[4Abz][Aun]-OH; thioether N-14) here?
**A.** Its IC50 is 77.2 nM.

**Q.** How did the IC50 turn out when `CC(C)C[C@@H]1NC(=O)[C@H](Cc2c[nH]c3ccccc23)NC(=O)[C@H](CC(=O)O)NC(=O)[C@H](Cc2ccc(C(=O)O)cc2)NC(=O)[C@H](Cc2ccc(OCC(=O)O)cc2)NC(=O)CSC[C@@H](C(=O)N[C@@H](CCCN)C(=O)NCCOCCOCC(=O)NCCCCCCCCCCC(N)=O)NC(=O)[C@H](CCCNC(N)=O)NC(=O)[C@H](C(C)C)NC(=O)[C@H](CC2CCCCC2)NC(=O)[C@H](CCN)NC(=O)[C@@H](CC(C)C)NC(=O)[C@H](C)N(C)C(=O)[C@H](C(C)C)NC(=O)[C@H](Cc2ccc(-c3ccccc3)cc2)NC1=O` [Example 1215] ({CH2CO}-Y(Carboxymethyl)[Phe(4-COOH)]DWL[Bip]V[NMeA][dL][Dab][Cha]V[Cit]C[Orn][AEEA][Aun]-NH2; thioether N-14) was run?
**A.** Its IC50 is 10.8 nM.

**Q.** `CC(C)C[C@@H]1NC(=O)[C@H](Cc2c[nH]c3ccccc23)NC(=O)[C@H](CC(=O)O)NC(=O)[C@H](Cc2ccncc2)NC(=O)[C@H](Cc2ccc(OCC(=O)O)cc2)NC(=O)CSC[C@@H](C(=O)Nc2cccc(C(=O)NCCCCCCCCCCC(=O)O)c2)NC(=O)[C@H](CN)NC(=O)[C@H](C(C)C)NC(=O)[C@H](CC2CCCCC2)NC(=O)[C@H](CCN)NC(=O)[C@@H](CC(C)C)NC(=O)[C@H](C)N(C)C(=O)[C@H](C(C)C)NC(=O)[C@H](Cc2ccc(-c3ccccc3)cc2)NC1=O` [Example 1216] ({CH2CO}-Y(Carboxymethyl)[4Pal]DWL[Bip]V[NMeA][dL][Dab][Cha]V[Dap]C[3Abz][Aun]-OH; thioether N-14) was tested. Which IC50 did it give?
**A.** Its IC50 is 265 nM.

**Q.** `CC(C)C[C@@H]1NC(=O)[C@H](Cc2c[nH]c3ccccc23)NC(=O)[C@H](CC(=O)O)NC(=O)[C@H](Cc2ccncc2)NC(=O)[C@H](Cc2ccc(OCC(=O)O)cc2)NC(=O)CSC[C@@H](C(=O)Nc2cccc(C(=O)NCCCCCCCCCCC(=O)O)c2)NC(=O)[C@H](CCN)NC(=O)[C@H](C(C)C)NC(=O)[C@H](CC2CCCCC2)NC(=O)[C@H](CCN)NC(=O)[C@@H](CC(C)C)NC(=O)[C@H](C)N(C)C(=O)[C@H](C(C)C)NC(=O)[C@H](Cc2ccc(-c3ccccc3)cc2)NC1=O` [Example 1217] ({CH2CO}-Y(Carboxymethyl)[4Pal]DWL[Bip]V[NMeA][dL][Dab][Cha]V[Dab]C[3Abz][Aun]-OH; thioether N-14) was tested. Which IC50 did it give?
**A.** Its IC50 is 238 nM.

**Q.** `CC(C)C[C@@H]1NC(=O)[C@H](Cc2c[nH]c3ccccc23)NC(=O)[C@H](CC(=O)O)NC(=O)[C@H](Cc2ccncc2)NC(=O)[C@H](Cc2ccc(OCC(=O)O)cc2)NC(=O)CSC[C@@H](C(=O)N2CCN(CC(=O)NCCCCCCCCCCC(=O)O)CC2)NC(=O)[C@H](C(C)O)NC(=O)[C@H](C(C)C)NC(=O)[C@H](CC2CCCCC2)NC(=O)[C@H](CCN)NC(=O)[C@@H](CC(C)C)NC(=O)[C@H](C)N(C)C(=O)[C@H](C(C)C)NC(=O)[C@H](Cc2ccc(-c3ccccc3)cc2)NC1=O` (stereo partly drawn) [Example 1219] ({CH2CO}-Y(Carboxymethyl)[4Pal]DWL[Bip]V[NMeA][dL][Dab][Cha]V[Thr(3ξ)]C[X1][Aun]-OH; thioether N-14) was tested. Which IC50 did it give?
**A.** Its IC50 is 202 nM.

**Q.** How did the IC50 turn out when `CC(C)C[C@@H]1NC(=O)[C@H](Cc2c[nH]c3ccccc23)NC(=O)[C@H](CC(=O)O)NC(=O)[C@H](Cc2ccncc2)NC(=O)[C@H](Cc2ccc(OCC(=O)O)cc2)NC(=O)CSC[C@@H](C(=O)N2CCN(CC(=O)NCCCCCCCCCCC(=O)O)CC2)NC(=O)[C@H](CCCNC(N)=O)NC(=O)[C@H](C(C)C)NC(=O)[C@H](CC2CCCCC2)NC(=O)[C@H](CCN)NC(=O)[C@@H](CC(C)C)NC(=O)[C@H](C)N(C)C(=O)[C@H](C(C)C)NC(=O)[C@H](Cc2ccc(-c3ccccc3)cc2)NC1=O` [Example 1220] ({CH2CO}-Y(Carboxymethyl)[4Pal]DWL[Bip]V[NMeA][dL][Dab][Cha]V[Cit]C[X1][Aun]-OH; thioether N-14) was run?
**A.** The IC50 was 182 nM.

**Q.** How did the IC50 turn out when `CC(C)C[C@@H]1NC(=O)[C@H](Cc2c[nH]c3ccccc23)NC(=O)[C@H](CC(=O)O)NC(=O)[C@H](Cc2ccncc2)NC(=O)[C@H](Cc2ccc(OCC(=O)O)cc2)NC(=O)CSC[C@@H](C(=O)N2CCNC[C@H]2C(=O)NCCCCCCCCCCC(=O)O)NC(=O)[C@H](C(C)O)NC(=O)[C@H](C(C)C)NC(=O)[C@H](CC2CCCCC2)NC(=O)[C@H](CCN)NC(=O)[C@@H](CC(C)C)NC(=O)[C@H](C)N(C)C(=O)[C@H](C(C)C)NC(=O)[C@H](Cc2ccc(-c3ccccc3)cc2)NC1=O` (stereo partly drawn) [Example 1221] ({CH2CO}-Y(Carboxymethyl)[4Pal]DWL[Bip]V[NMeA][dL][Dab][Cha]V[Thr(3ξ)]C[Pip(4-aza)][Aun]-OH; thioether N-14) was run?
**A.** The IC50 was 121 nM.

**Q.** With `CC(C)C[C@@H]1NC(=O)[C@H](Cc2c[nH]c3ccccc23)NC(=O)[C@H](CC(=O)O)NC(=O)[C@H](Cc2ccncc2)NC(=O)[C@H](Cc2ccc(OCC(=O)O)cc2)NC(=O)CSC[C@@H](C(=O)N2CCOC[C@H]2C(=O)NCCCCCCCCCCC(=O)O)NC(=O)[C@H](C(C)O)NC(=O)[C@H](C(C)C)NC(=O)[C@H](CC2CCCCC2)NC(=O)[C@H](CCN)NC(=O)[C@@H](CC(C)C)NC(=O)[C@H](C)N(C)C(=O)[C@H](C(C)C)NC(=O)[C@H](Cc2ccc(-c3ccccc3)cc2)NC1=O` (stereo partly drawn) [Example 1222] ({CH2CO}-Y(Carboxymethyl)[4Pal]DWL[Bip]V[NMeA][dL][Dab][Cha]V[Thr(3ξ)]C[Morpholine(3S-CO)][Aun]-OH; thioether N-14) as the molecule, how does the IC50 read?
**A.** The IC50 was 591 nM.

**Q.** With `CC(C)C[C@@H]1NC(=O)[C@H](Cc2c[nH]c3ccccc23)NC(=O)[C@H](CC(=O)O)NC(=O)[C@H](Cc2ccncc2)NC(=O)[C@H](Cc2ccc(OCC(=O)O)cc2)NC(=O)CSC[C@@H](C(=O)N2CCOC[C@H]2C(=O)NCCCCCCCCCCC(=O)O)NC(=O)[C@H](CCCNC(N)=O)NC(=O)[C@H](C(C)C)NC(=O)[C@H](CC2CCCCC2)NC(=O)[C@H](CCN)NC(=O)[C@@H](CC(C)C)NC(=O)[C@H](C)N(C)C(=O)[C@H](C(C)C)NC(=O)[C@H](Cc2ccc(-c3ccccc3)cc2)NC1=O` [Example 1223] ({CH2CO}-Y(Carboxymethyl)[4Pal]DWL[Bip]V[NMeA][dL][Dab][Cha]V[Cit]C[Morpholine(3S-CO)][Aun]-OH; thioether N-14) as the molecule, how does the IC50 read?
**A.** The IC50 was 420 nM.

**Q.** Which IC50 does the source give for `Cc1cccc(C[C@@H]2NC(=O)[C@H](CC(=O)O)NC(=O)[C@H](Cc3ccc(OCC(=O)O)cc3)NC(=O)[C@H](CCCNC(=N)N)NC(=O)CSC[C@@H](C(=O)N[C@@H](CCCCN)C(=O)NCCCCCCCCCCC(=O)O)NC(=O)[C@H]([C@@H](C)O)NC(=O)[C@H](C(C)C)NC(=O)[C@H](CC3CCCCC3)NC(=O)[C@H](CCN)NC(=O)[C@@H](CC(C)C)NC(=O)[C@H](C)N(C)C(=O)[C@H](Cc3ccc(OCC(=O)O)cc3)NC(=O)[C@H](Cc3ccc(-c4ccccc4)cc3)NC(=O)[C@H](Cc3ccc(OCC(=O)O)cc3)NC2=O)c1` [Example 1224] ({CH2CO}-RY(Carboxymethyl)D[Phe(3-Me)]Y(Carboxymethyl)[Bip]Y(Carboxymethyl)[NMeA][dL][Dab][Cha]VTCK[Aun]-OH; thioether N-14) here?
**A.** Its IC50 is 27.9 nM.

**Q.** For `Cc1cccc(C[C@@H]2NC(=O)[C@H](CC(=O)O)NC(=O)[C@H](Cc3ccc(OCC(=O)O)cc3)NC(=O)[C@H](CCCNC(=N)N)NC(=O)CSC[C@@H](C(=O)N[C@@H](CCCCN)C(=O)NCCCCCCCCCCC(=O)O)NC(=O)[C@H]([C@@H](C)O)NC(=O)[C@H](C(C)C)NC(=O)[C@H](CC3CCCCC3)NC(=O)[C@H](CCN)NC(=O)[C@@H](CC(C)C)NC(=O)[C@H](C)N(C)C(=O)[C@H](Cc3ccc(OCC(=O)O)cc3)NC(=O)[C@H](Cc3ccc(-c4ccccc4)cc3)NC(=O)[C@H](Cc3ccc(C(=O)O)cc3)NC2=O)c1` [Example 1225] ({CH2CO}-RY(Carboxymethyl)D[Phe(3-Me)][Phe(4-COOH)][Bip]Y(Carboxymethyl)[NMeA][dL][Dab][Cha]VTCK[Aun]-OH; thioether N-14), which IC50 is on record?
**A.** The IC50 was 48.7 nM.

**Q.** `Cc1cccc(C[C@@H]2NC(=O)[C@H](CC(=O)O)NC(=O)[C@H](Cc3ccc(OCC(=O)O)cc3)NC(=O)[C@H](CCCCN)NC(=O)CSC[C@@H](C(=O)N[C@@H](CCCCN)C(=O)NCCCCCCCCCCC(=O)O)NC(=O)[C@H]([C@@H](C)O)NC(=O)[C@H](C(C)C)NC(=O)[C@H](CC3CCCCC3)NC(=O)[C@H](CCN)NC(=O)[C@@H](CC(C)C)NC(=O)[C@H](C)N(C)C(=O)[C@H](Cc3ccc(OCC(=O)O)cc3)NC(=O)[C@H](Cc3ccc(-c4ccccc4)cc3)NC(=O)[C@H](Cc3ccc(C(=O)O)cc3)NC2=O)c1` [Example 1226] ({CH2CO}-KY(Carboxymethyl)D[Phe(3-Me)][Phe(4-COOH)][Bip]Y(Carboxymethyl)[NMeA][dL][Dab][Cha]VTCK[Aun]-OH; thioether N-14) was tested. Which IC50 did it give?
**A.** The IC50 was 80.6 nM.
